Source: PubChem BioAssay (NCI)
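Where inhibition never reached the appropriate level, the endpoint shown equals the highest concentration tested. Otherwise, values were interpolated linearly from a five-concentration, 48-hour dose response in 96-well plates. TGI: concentration producing complete growth inhibition.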

Legend:
Assay in all cases: NCI-60 cell line screen, 48 h
OVCAR-4 ovarian = test system: OVCAR-4 ovarian
OVCAR-5 ovarian = test system: OVCAR-5 ovarian
COLO 205 colon = test system: COLO 205 colon
HOP-92 NSCLC = test system: HOP-92 NSCLC
UACC-257 melanoma = test system: UACC-257 melanoma
K-562 leukemia = test system: K-562 leukemia
KM12 colon = test system: KM12 colon
UACC-62 melanoma = test system: UACC-62 melanoma
MCF7 breast = test system: MCF7 breast
NCI/ADR-RES ovarian = test system: NCI/ADR-RES ovarian

SMILES	TGI (OVCAR-4 ovarian) [µM]	TGI (OVCAR-5 ovarian) [µM]	TGI (COLO 205 colon) [µM]	TGI (HOP-92 NSCLC) [µM]	TGI (UACC-257 melanoma) [µM]	TGI (K-562 leukemia) [µM]	TGI (KM12 colon) [µM]	TGI (UACC-62 melanoma) [µM]	TGI (MCF7 breast) [µM]	TGI (NCI/ADR-RES ovarian) [µM]
O=c1c2ccccc2nc(-c2ccccc2)n1NC(=S)Nc1ccc(Cl)cc1	> 100	> 100	> 100	> 100	> 100	> 100	> 100	> 100		
C=C1[C@@](C)([C@@H]2CCCS2)[C@H]2C(C)=C[C@]1(C)n1c(=O)n(-c3ccccc3)c(=O)n12	> 100	> 100	> 100		> 100		> 100	> 100	> 100	> 100
O=C(O)CC[P+](c1ccccc1)(c1ccccc1)c1ccccc1	> 100	> 100	27.4		> 100	> 100	> 100	> 100	> 100	> 100
CN(C)c1ccc(/C=C/C(=O)N[C@@H]2C(=O)N3[C@@H]2SC(C)(C)[C@@H]3C(=O)O)cc1	> 100	> 100	> 100		> 100	> 100	> 100	> 100	> 100	> 100
COC(=O)[C@@](C)(COC(=O)C(C)(C)C)NC(=O)OC(C)(C)C	> 100	> 100	> 100		> 100	> 100	> 100	> 100	> 100	> 100
CCOC(=O)NNC(=O)NCc1ccccc1CNC(=O)NNC(=O)OCC	> 100	> 100	> 100		> 100	> 100	> 100	> 100	> 100	> 100
O=[N+]([O-])c1ccc2oc(=Nc3ccccc3)c(Nc3ccccc3)nc2c1	> 100	> 100	> 100	93	> 100	> 100	> 100	> 100		> 100
Cc1c(OCc2ccccc2)c(=O)ccn1CCc1c[nH]c2ccccc12		> 100	32.1	51.3	> 100		> 100	87.3	42.9	> 100
CS(=O)(=O)c1nc(-c2cc3c(c(S(C)(=O)=O)n2)CCC3)cc2c1CCCC2	> 100	> 100	> 100		> 100	> 100	> 100	29.6		> 100
COc1ccc2nc3c(c(NCCCN(C)C)c2c1)CCCC3	18.5	35.6	23	21.1	31.3	8.3	33	31.2		
CC(=O)NNc1nc(C)c(C(=O)NNC(=O)C(=O)Nc2cccc(C(C)=O)c2)s1	64.3	> 100	> 100	90	49.9	> 100	57.7	31.4		
Cc1ccc(Sc2ccccc2[N+](=O)[O-])cc1	> 100	> 100	62.3	59.2	67.8	> 100	> 100	> 100		
CCC(COC(=O)CC[C@@H](NC(=O)C(C)NC(=O)C(C)OC1C(O)C(CO)OC(OCc2ccccc2)C1NC(C)=O)C(N)=O)NC1c2ccccc2Nc2cccc([N+](=O)[O-])c21 (stereo partly specified)	> 100	> 100	> 100	> 100	> 100	> 100	> 100	> 100		
CCOC(=O)c1c(C)nc2c(c1-c1cn(-c3ccccc3)nc1-c1ccccc1)C(=O)c1ccccc1-2	> 100	> 100	> 100	> 100	> 100	> 100	> 100	> 100		> 100
CN1N=C(c2ccncc2)OC1c1cccc(C(F)(F)F)c1 (stereo unspecified)	> 100	> 100	> 100		> 100	> 100	> 100	> 100		> 100
CCOC(=O)c1cc2c(OCc3ccccc3)c(OC)cc3c2c(n1)N(c1ccc(OC)cc1)C(C)C3 (stereo unspecified)	> 50	> 50	> 50	42.9		> 50		> 50		
COC(=O)C1=C(O)C(C(=O)OC)[C@]2(O)[C@@H](C(=O)OC)[C@H]1C[C@@H](c1ccccc1)[C@@H]2C(=O)OC (stereo partly specified)		30.9			25.8	33.4	25.8	25.1	> 100	
Cc1nnc2n(c1=O)CCN2C	> 100	> 100	> 100	> 100		> 100	> 100	> 100	> 100	
